For the assay, the target named is T1, GTF180-ΔN (GTF180) (Limosilactobacillus reuteri, UniProt Q5SBN3).
T1 construct: N-terminally truncated GTF180-ΔN (catalytic and C-terminal domains), 117 kDa
Description: UPLC-MS of dynamic combinatorial library (cleavage to A1H8). It is filed as biochemical. The conditions noted are these: 30 μM protein, mixture of library members with 10 mM aniline, pH 5.2, 10 % DMSO, room temperature.

Each structure is given as a SMILES string.

T1 sequence (Q5SBN3 entry or part of it, stated change not applied): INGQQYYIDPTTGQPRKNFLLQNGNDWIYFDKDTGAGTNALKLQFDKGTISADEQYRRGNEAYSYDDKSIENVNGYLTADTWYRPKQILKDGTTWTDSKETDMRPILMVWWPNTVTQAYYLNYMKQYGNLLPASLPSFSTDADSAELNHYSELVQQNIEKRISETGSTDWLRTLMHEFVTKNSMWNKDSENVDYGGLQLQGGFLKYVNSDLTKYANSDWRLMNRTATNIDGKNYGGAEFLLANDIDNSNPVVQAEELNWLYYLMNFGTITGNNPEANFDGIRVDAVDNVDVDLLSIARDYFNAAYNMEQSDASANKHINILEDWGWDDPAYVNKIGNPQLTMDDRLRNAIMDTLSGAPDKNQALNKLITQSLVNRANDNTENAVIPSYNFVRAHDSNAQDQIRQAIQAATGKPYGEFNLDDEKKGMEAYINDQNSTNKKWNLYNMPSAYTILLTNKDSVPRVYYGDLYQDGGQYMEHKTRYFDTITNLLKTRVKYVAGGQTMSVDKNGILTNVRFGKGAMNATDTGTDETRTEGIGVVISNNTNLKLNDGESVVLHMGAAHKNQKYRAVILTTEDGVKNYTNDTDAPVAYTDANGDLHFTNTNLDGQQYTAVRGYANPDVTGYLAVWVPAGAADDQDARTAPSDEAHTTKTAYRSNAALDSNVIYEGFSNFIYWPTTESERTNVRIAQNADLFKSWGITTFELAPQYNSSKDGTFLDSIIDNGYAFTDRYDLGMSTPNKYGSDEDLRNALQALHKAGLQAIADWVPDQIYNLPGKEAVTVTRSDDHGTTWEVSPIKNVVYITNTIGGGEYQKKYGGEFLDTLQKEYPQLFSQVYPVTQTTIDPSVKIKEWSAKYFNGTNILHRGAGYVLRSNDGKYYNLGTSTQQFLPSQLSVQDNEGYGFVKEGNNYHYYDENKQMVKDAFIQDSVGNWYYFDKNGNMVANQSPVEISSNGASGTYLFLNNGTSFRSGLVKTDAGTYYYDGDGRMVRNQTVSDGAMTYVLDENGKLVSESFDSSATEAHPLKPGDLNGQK

Regarding `O=C(CC1CCCC1)N/N=C/c1ccc(O[C@@H]2O[C@H](CO)[C@@H](O[C@H]3O[C@H](CO)[C@@H](O)[C@H](O)[C@H]3O)[C@H](O)[C@H]2O)cc1` [A2H8], the “UPLC-MS of dynamic combinatorial library (cleavage to A1H8)” value was “maltose‐derived acylhydrazones A2H2 and A2H8 with a lipophilic”.

(Values after publication PMC7818428, “Potential Dental Biofilm Inhibitors: Dynamic Combinatorial Chemistry Affords Sugar‐Based Molecules that Target Bacterial Glucosyltransferase” (Chemmedchem, 2020).)
